In one data set the target is T1, human Kv4.3 (Homo sapiens, UniProt Q9UK17).
T1 construct: expressed in transfected cells; host or cells: transgenic C. elegans strain UG1755 (plasmid pGV8 integrated; expression in the pharynx)
T1 sequence (Q9UK17 1-655): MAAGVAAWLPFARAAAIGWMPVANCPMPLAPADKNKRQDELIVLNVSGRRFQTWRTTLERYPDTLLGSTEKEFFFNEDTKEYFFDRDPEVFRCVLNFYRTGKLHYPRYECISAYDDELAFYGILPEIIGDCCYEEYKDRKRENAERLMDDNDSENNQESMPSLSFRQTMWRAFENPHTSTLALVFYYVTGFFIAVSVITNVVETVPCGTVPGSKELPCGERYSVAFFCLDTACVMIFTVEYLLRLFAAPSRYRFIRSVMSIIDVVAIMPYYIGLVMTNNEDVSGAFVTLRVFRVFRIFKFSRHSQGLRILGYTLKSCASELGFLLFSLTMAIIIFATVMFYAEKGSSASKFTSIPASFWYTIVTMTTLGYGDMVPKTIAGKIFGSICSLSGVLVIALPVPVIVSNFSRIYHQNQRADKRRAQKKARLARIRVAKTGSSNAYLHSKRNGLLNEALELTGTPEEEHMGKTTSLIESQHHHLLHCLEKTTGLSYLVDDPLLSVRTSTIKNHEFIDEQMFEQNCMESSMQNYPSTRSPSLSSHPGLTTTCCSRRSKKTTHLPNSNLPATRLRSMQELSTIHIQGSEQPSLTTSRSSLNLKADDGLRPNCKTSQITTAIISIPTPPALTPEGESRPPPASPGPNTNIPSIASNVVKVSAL
The data set is described as follows: Electropharyngeogram (EPG) analysis of dissected pharynxes of transgenic C. elegans strain UG1755. Format: ex vivo, transgenic C. elegans expressing human Kv4.3. How it is done:
The method to describe the construction of a transgenic C. elegans strain expressing human Kv4.3 has been described in WO 03/097682. Briefly, the actual used strain UG1755 has been generated by microinjection into the gonad of a wild-type strain N2 with a mix of 5 ng/μl plasmid pGV8 (human Kv4.3), 20 ng/μl pDW2821 (GFP-marker) and 40 ng/μl genomic C. elegans DNA. Transgenic animals have been isolated and submitted to integration of the extra-chromosomal array into the genome of C. elegans. A line with 50% transmission of the functional expressed human Kv4.3 has been mutagenized with gamma irradiation using a Cobalt source. About 12000 F2 animals have been singled out and their progeny has been screened for the 100% transmission of the GFP marker. Lines with 100% transmission of GFP have been considered as potentially integrated. These lines have been further tested and out-crossed with N2 strain two-times. All lines obtained have been tested for viability, GFP and human Kv4.3 expression. At the end of a selection process, UG1755 was identified as most suitable C. elegans strain amenable to high throughput screening (HTS). […] Briefly, dissected pharynxes of UG1755 C. elegans animals have been prepared and Electropharyngeograms (EPGs) have been recorded using an Axopatch-1D amplifier (Axon instruments). […] The number of ultra short EPGs (10-20 ms) and normal EPGs (100-200 ms) has been analyzed and given as ratio in percentage. […] In addition standard qRT-PCR confirmed the presence of the human Kv4.3 transgene in UG1755 as well as human Kv4.3 protein has been detected with the human Kv4.3 antibody P 0358 in the pharynx of UG1755 animals.
Introducing the human Kv4.3 channel into the C. elegans pharynx influences the C. elegans action potential in a characteristic fashion. […] The pumping end-point can be technically translated into a high-throughput read-out by the use of a pro-fluorescent dye. […] After a defined incubation period, the change of fluorescence intensity in the intestine can be measured with a plate reader.

Data set [1] deals with T2, human Kv4.3/KChIP2.2 potassium channel (Homo sapiens, UniProt Q9UK17).
T2 construct: expressed in transfected cells
T2 sequence (Q9UK17 1-655): T1 sequence (Q9UK17 1-655)
T2 sequence (Q9NS61 1-270 partner): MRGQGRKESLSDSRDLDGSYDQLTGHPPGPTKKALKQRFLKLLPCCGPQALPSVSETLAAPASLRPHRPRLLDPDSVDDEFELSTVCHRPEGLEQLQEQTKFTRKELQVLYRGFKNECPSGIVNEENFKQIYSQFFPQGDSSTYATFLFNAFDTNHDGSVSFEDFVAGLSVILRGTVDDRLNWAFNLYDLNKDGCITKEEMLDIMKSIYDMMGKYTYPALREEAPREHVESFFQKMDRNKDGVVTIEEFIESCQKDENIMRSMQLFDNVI
Put plainly: Whole cell patch clamp, CHO-K1 cells stably expressing Kv4.3/KChIP2.2. In kind it is cell-based. The following applies: for remaining activity at 1 µM: CHO-K1. A digest of the protocol: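 Whole-cell patch clamp at 20-25 °C, bath pH 7.4 with 4 mM KCl, pipette 130 mM KCl/10 mM EGTA/5 mM Na2ATP. Compound at […] (≤0.1% DMSO), n=2; pulses from −100 mV to +40 mV for 300 ms at 0.1 Hz, P/n (n=5) leak-corrected, cells with 1–50 nA currents only.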
Background: Patch clamp records ionic current or voltage across a cell membrane.

The next data set has as its target hERG potassium channel (Homo sapiens, UniProt Q12809). Put plainly: Whole cell patch clamp, HEK 293 T-REx HERG cells.
Setting [2] is: read-out: Kv4.3 charge in %: remaining current measured after application of the compound and relative to the blank.
Setting [3] is: read-out: Kv4.3 peak in %: remaining peak height measured after application of the compound and relative to the blank.

Each structure is given as a SMILES string. Read-outs that look alike come from different tables or passages of the source.

hERG potassium channel, sequence (Q12809 whole entry): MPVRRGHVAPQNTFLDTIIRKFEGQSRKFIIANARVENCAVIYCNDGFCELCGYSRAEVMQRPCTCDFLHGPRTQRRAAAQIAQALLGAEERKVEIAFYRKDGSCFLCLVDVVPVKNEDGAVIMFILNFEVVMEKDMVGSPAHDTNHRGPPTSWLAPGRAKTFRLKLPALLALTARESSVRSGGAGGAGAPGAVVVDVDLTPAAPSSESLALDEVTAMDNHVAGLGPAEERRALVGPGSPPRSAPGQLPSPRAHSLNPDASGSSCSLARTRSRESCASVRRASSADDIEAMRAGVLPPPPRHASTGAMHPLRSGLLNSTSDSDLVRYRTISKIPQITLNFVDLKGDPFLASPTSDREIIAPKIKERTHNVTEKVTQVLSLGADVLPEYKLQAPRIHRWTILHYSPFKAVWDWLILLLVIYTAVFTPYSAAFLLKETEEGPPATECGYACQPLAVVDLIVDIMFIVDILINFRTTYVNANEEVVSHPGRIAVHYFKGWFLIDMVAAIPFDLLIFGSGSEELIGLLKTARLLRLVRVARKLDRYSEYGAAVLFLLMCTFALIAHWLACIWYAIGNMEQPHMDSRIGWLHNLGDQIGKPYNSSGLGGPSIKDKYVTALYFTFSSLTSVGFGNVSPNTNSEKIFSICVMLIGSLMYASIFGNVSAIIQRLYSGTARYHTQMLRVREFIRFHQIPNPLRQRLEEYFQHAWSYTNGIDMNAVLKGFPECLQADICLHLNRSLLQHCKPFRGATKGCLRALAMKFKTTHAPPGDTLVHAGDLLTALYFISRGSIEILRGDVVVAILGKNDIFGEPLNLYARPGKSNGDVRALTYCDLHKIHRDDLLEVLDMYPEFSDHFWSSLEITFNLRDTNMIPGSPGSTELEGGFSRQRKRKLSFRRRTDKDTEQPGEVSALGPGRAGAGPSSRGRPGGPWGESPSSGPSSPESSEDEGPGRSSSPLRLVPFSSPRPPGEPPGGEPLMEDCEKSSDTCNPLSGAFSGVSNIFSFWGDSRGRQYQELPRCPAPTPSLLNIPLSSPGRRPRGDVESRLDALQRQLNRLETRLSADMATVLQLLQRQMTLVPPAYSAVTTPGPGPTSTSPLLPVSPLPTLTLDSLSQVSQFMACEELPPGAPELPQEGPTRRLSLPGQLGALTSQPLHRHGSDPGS
Text for hERG potassium channel: For this experiment HEK 293 T-REx HERG cells (#23) were used. This cell line made by IonGate is characterized by the inducible expression of the hERG gene. The T-REx™ System (Invitrogen, Karlsruhe, Germany) is a tetracycline-regulated mammalian expression system that uses regulatory elements from the E. coli Tn10-encoded tetracycline (Tet) resistance operon. In the absence of Tet the expression is repressed. Tetracycline regulation in the T-REx™ System is based on the binding of tetracycline to the Tet repressor and derepression of the promoter controlling expression of the hERG gene. Addition of Tet to the cell culture media results in expression of the hERG potassium channel.
To construct the HEK 293 T-REx HERG cell line, the hERG gene was ligated into the inducible expression vector pcDNA4/TO (→pc4TO-HERG) and transfected into HEK 293 T-REx cells (this cell line stably expresses the Tet repressor and was purchased at Invitrogen). Stable cell clones were isolated after selection with Blasticidin (5 μg/ml) and Zeocin™ (300 μg/ml). The clones were electrophysiological characterized after induction with 1 μg/ml Tet.
Experiments were performed using the patch clamp set-up. Technical equipment needed for manipulation of the cells was placed on a vibration-isolated table and shielded with a Faraday cage to minimize electrical noise. The amplifier and control system were placed in a rack outside the Faraday cage. The system consisted of an EPC9 or EPC10 patch clamp amplifier (HEKA, Lambrecht, Germany), and the perfusion system DADVC8 (ALA Scientific, New York, USA) controlled by the Pulse software package (HEKA, Lambrecht, Germany) installed on a personal computer.
The cells used for this experiment were kept in continuous culture under standard conditions (37° C., air supplemented with 5% CO2). The HEK 293 T-REx HERG cells were kept in minimal essential medium (MEM) supplemented with 100 U/ml Penicillin, 100 μg/ml Streptomycin, 10% fetal calf serum (FCS), 1% non-essential amino acids (NEAA), 2.5 μg/ml amphotericin, 300 μg/ml Zeocin™ and 5 μg/ml Blasticidin. Cells were passed every 3-4 days after detachment using a Trypsin solution. The quality of the cultured cells was guaranteed by vitality and contamination tests.
At least 18 hours prior to electrophysiological experiments the cells were detached by application of iced PBS (phosphate buffered saline) or Trypsin and replated on cover slips. 1 μg/ml Tet was added to the cells to induce hERG expression.
Activity of the cardiac hERG channel was investigated using the patch clamp technique in its whole cell mode. This means that the current needed for clamping the whole cell expressing the K^+-channel protein to a specific potential was measured. The pipettes used for patch clamping were made of borosilicate glass. Measurements were performed at room temperature (20-25° C.). In each experiment (i.e. each cell) only one concentration of the compound was investigated—no cumulative dosages were performed. Each cell acted as its own control. The effect of the compounds on hERG mediated currents was investigated at one concentration (10 μM) with two replicates each (c=1, n=2).
Between voltage pulses the cell was clamped to a holding potential of −80 mV (inside).
(b) and (c) were used to characterize the properties of the hERG channel and to check the quality of the individual patch clamp experiment (voltage control). Each test protocol consisted of 6 segments.

For `O=C(NCC1CCCCN1)c1cc(OCC(F)(F)F)ccc1OCC(F)(F)F` (stereo not shown) [Flecainide], on human Kv4.3, the “ultra short action potentials of the human Kv4.3 transgenic C. elegans pharynx (result in words)” value was “restored to normal action potentials”. In addition, the “After Application of Compound Ratio Ultra short to Normal EPGs in %” value on human Kv4.3 (strain UG1755, 100 μM, n = 15, before application 83 ± 13) was 53 ± 24%.

Take `CN(CCCN1c2ccccc2CCc2ccccc21)C(=O)c1cc2cc(Cl)ccc2o1` [Compound 4, 5-chloro-benzofuran-2-carboxylic acid [3-(10,11-dihydro-dibenzo[b,f]azepin-5-yl)-propyl]-methyl-amide]: the half-maximal inhibitory concentration (IC50) (in general, the concentration needed to halve the response being measured) was 3.81 µM in data set [1] (Table 12, read-out: Kv4.3 charge IC50) and 20 µM on hERG potassium channel. Besides, the “Ratio hERG/Kv4.3” value on hERG potassium channel (selectivity Kv4.3 vs hERG, patch clamp) came out at 5.2.

As for `O=C(c1cc2cc(Cl)ccc2o1)N1CCCCC1Cc1ccccc1` (stereo not shown) [Compound 28, (2-benzyl-piperidin-1-yl)-(5-chloro-benzofuran-2-yl)-methanone], the remaining activity at 1 µM in data set [1] (setting [2]) worked out at 38%; in data set [1] (setting [3]) it was 86%. Besides, the “hERG (%)” value on hERG potassium channel (10 μM) is listed as 6%.

For the compound `N#CCCN(Cc1ccccc1)C(=O)c1cc2cc(Cl)ccc2o1` [Compound 109, 5-chloro-benzofuran-2-carboxylic acid benzyl-(2-cyano-ethyl)-amide], the remaining activity at 1 µM stood at 74% in data set [1] (setting [2]) and 97% in data set [1] (setting [3]). The “hERG (%)” value at hERG potassium channel (10 μM) is listed as 34%.

With `COc1ccc(CNC(=O)c2oc3ccccc3c2C)c(OC)c1` [Compound 43, 3-methyl-benzofuran-2-carboxylic acid 2,4-dimethoxy-benzylamide], the melting point (usually the temperature of the solid-liquid transition) lay in the range of 110.7 to 111.5 °C. In data set [1] (setting [2]), the remaining activity at 1 µM amounted to 70%. Moreover, the remaining activity at 1 µM in data set [1] (setting [3]) was 94%. At hERG potassium channel (10 μM), the “hERG (%)” value was found to be 61%.

For `O=C(OCc1ccccc1)c1cc2cc(Cl)ccc2o1` [Compound 44, 5-chloro-benzofuran-2-carboxylic benzyl ester], the melting point lay in the range of 76.9 to 77.3 °C. In addition, the remaining activity at 1 µM in data set [1] (setting [2]) was 45%. For the same compound, the remaining activity at 1 µM in data set [1] (setting [3]) is 80%. For the same compound, the “hERG (%)” value on hERG potassium channel (10 μM) came to 28%.

As for `O=C(NCc1ccc2c(c1)OCO2)c1cc2cc(Cl)ccc2o1` [Compound 92], the melting point was in the range of 144 to 145.9 °C. In data set [1] (setting [2]), the remaining activity at 1 µM was found to be 64%. Also, the remaining activity at 1 µM in data set [1] (setting [3]) amounted to 91%. For the same compound, the “hERG (%)” value on hERG potassium channel (at 1 μM) came to 88% at 1 μM.

`COc1ccc(CNC(=O)c2oc3ccc(Cl)cc3c2C)c(OC)c1` [Compound 16, 5-choro-3-methyl-benzofuran-2-carboxylic acid 2,4-dimethoxy-benzylamide] had a melting point of 139.8 to 140.4 °C. Further, the remaining activity at 1 µM in data set [1] (setting [2]) was 24%. For the same compound, in data set [1] (setting [3]), the remaining activity at 1 µM was determined as 88%. For the same compound, the “hERG (%)” value at hERG potassium channel (10 μM) was 47%.

In the case of `Nc1ccncc1` [4-aminopyridine], on human Kv4.3, the “ultra short action potentials of the human Kv4.3 transgenic C. elegans pharynx (result in words)” value was “restored to normal action potentials”.

Consider `COc1ccc(CNC(=O)c2sc3ccc(Cl)cc3c2C)c(OC)c1` [Compound 21], for which the melting point lay within 146.8 to 147.8 °C. Besides, the remaining activity at 1 µM in data set [1] (setting [2]) came out at 50%. The remaining activity at 1 µM in data set [1] (setting [3]) came to 92%. The “hERG (%)” value at hERG potassium channel (10 μM) is listed as 100%.

Turning to `O=C(NCc1cccs1)c1cc2cc(Cl)ccc2o1` [Compound 39, 5-chloro-benzofuran-2-carboxylic acid 4-(thiophen-2-ylmethyl)-amide], the melting point fell in the range of 148.4 to 149.9 °C. Moreover, the remaining activity at 1 µM in data set [1] (setting [2]) turned out to be 90%. Besides, the remaining activity at 1 µM in data set [1] (setting [3]) was determined as 91%.

In turn, `COc1ccc(CNC(=O)c2oc3ccccc3c2-n2cccc2)c(OC)c1` [Compound 18, 3-pyrrol-1-yl-benzofuran-2-carboxylic acid 2,4-dimethoxy-benzylamide] gave a melting point of 46 to 51.8 °C. For the same compound, the remaining activity at 1 µM in data set [1] (setting [2]) is 45%. The remaining activity at 1 µM in data set [1] (setting [3]) was 88%. Further, at hERG potassium channel (10 μM), the “hERG (%)” value was determined as 41%.

The compound `COc1ccc(NC(=O)c2cc3cc(Cl)ccc3o2)c(OC)c1` [Compound 24, 5-chloro-benzofuran-2-carboxylic acid (2,4-dimethoxy-phenyl)-amide] gave a melting point of 161.6 to 163.3 °C. In addition, the remaining activity at 1 µM in data set [1] (setting [2]) was 85%. For the same compound, the remaining activity at 1 µM in data set [1] (setting [3]) was 102%.

Turning to `Cc1cccc(Cl)c1CNC(=O)c1cc2cc(Cl)ccc2o1` [Compound 62, 5-chloro-benzofuran-2-carboxylic acid 2-chloro-6-methyl-benzylamide], the melting point was 168.3 to 168.7 °C. Further, the remaining activity at 1 µM in data set [1] (setting [2]) is 39%. In addition, the remaining activity at 1 µM in data set [1] (setting [3]) is 86%.

As for `O=C(NC1Cc2ccccc2C1)c1cc2cc(Cl)ccc2o1` [Compound 25, 5-chloro-benzofuran-2-carboxylic acid indan-2-ylamide], the melting point lay within 190.2 to 190.5 °C. Also, the remaining activity at 1 µM in data set [1] (setting [2]) came out at 82%. Further, the remaining activity at 1 µM in data set [1] (setting [3]) was determined as 100%.

Regarding `COc1ccc(CNC(=O)c2cc3cc(Cl)ccc3n2C)c(OC)c1` [Compound 19, 5-chloro-1-methyl-1H-indole-2-carboxylic acid 2,4-dimethoxy-benzylamide], the melting point is 150.8 to 152.7 °C. Also, in data set [1] (setting [2]), the remaining activity at 1 µM was 44%. For the same compound, the remaining activity at 1 µM in data set [1] (setting [3]) stood at 87%. Further, the “hERG (%)” value on hERG potassium channel (10 μM) is given as 35%.

In the case of `O=C(c1cc2cc(Cl)ccc2o1)N1CCc2ccccc2C1` [Compound 27, (5-chloro-benzofuran-2-yl)-(3,4-dihydro-1H-isoquinolin-2-yl)-methanone], the melting point fell in the range of 127.7 to 129.1 °C. Further, in data set [1] (setting [2]), the remaining activity at 1 µM is 59%. Further, in data set [1] (setting [3]), the remaining activity at 1 µM is 86%.

(Values after patent US20080039442A1, “Compounds With Kv4 Ion Channel Activity” (Devgen NV, priority 2004, published 2008).)
